Measurements published in patent publication US9364492B2, “Method for glycosylation of flavonoid compounds” (SUNTORY HOLDINGS LIMITED, priority 2007, dated 2016).

Legend:
[1] = tested on: TRa2; experiment: Glycosidase activity of TRa2 on sugars, TLC; format: biochemical, Trichoderma viride; conditions: 0.5% sugar, 20 mM acetate buffer pH 5.0, 50° C., 1 hour
Experimental: The culture supernatant (500 μl) was concentrated about 5-fold using Microcon YM-30 (Amicon). The above concentrate (10 μl) was added to 100 μl of 20 mM acetate buffer (pH 5.0) containing 0.5% maltose, maltotriose, maltotetraose, dextrin, α-cyclodextrin, β-cyclodextrin or γ-cyclodextrin, and reacted at 50° C. for 1 hour.
After completion of the reaction, each sample was analyzed by TLC as follows. The plate used was a silica gel G-60 plate (Merck & Co., Inc.), and the developing solution used was 2-propanol:acetone:0.5 M lactic acid=2:2:1. For detection, the plate was sprayed with sulfuric acid:ethanol=1:9, air-dried and then heated on a hot plate. As a result, none of the sugars was degraded in a culture solution of the control strain (strain C-1) transformed with vector pYE22m.

[2] = Heat stability of glycoside; format: physicochemical; conditions: 100 μM in 10 mM potassium phosphate buffer pH 7.0, 4° C. to 100° C., 0 to 4 hours
Experimental: After 10 mM potassium phosphate buffer (pH 7.0, 30 μl) containing 100 μM (+)-catechin or 4′-O-α-D-glucopyranosyl-(+)—catechin obtained in Example 4 was treated at different temperatures ranging from 4° C. to 100° C. for 0 to 4 hours, each sample was transferred on ice and mixed with 0.1% TFA (60 μl), followed by HPLC analysis in the same manner as shown in Example 1.

[3] = Solubility of glycoside in water; format: physicochemical
Experimental: (+)-Catechin or 5-O-α-D-glucopyranosyl-(+)-catechin obtained in Example 3 was added to water at different concentrations ranging from 10 to 450 mg/ml and dissolved by vigorous stirring, followed by centrifugation to remove precipitates. The supernatant was analyzed by HPLC to quantify the amounts of (+)-catechin and 5-O-α-D-glucopyranosyl-(+)-catechin. The same procedure was also repeated to study the solubility of (−)-epigallocatechin-3-β-gallate or 5-O-α-D-glucopyranosyl-(−)-epigallocatechin-3-O-gallate.

[4] = tested on: TRa2; experiment: Substrate specificity: glycosylation of acceptor compounds with dextrin by crude TRa2 enzyme solution, HPLC; format: biochemical, Trichoderma viride; conditions: 0.5 mM or 10 mM glycosyl acceptor compound, 10 mg dextrin, pH 5.2, 45° C., 24 hr
Experimental: The strain TRa2-1 was cultured overnight at 30° C. with shaking in 10 ml YPD medium. After reaching the resting phase, the culture solution was inoculated into the same medium (2% (v/v)) and cultured with shaking at 30° C. for 3 days. After culturing, the supernatant was collected by centrifugation and concentrated 5-fold to give a crude enzyme solution of TRa2. The reaction was performed at 45° C. for 24 hr in 100 μl enzyme reaction solution containing 0.5 mM or 10 mM glycosyl acceptor compound ((+)-catechin, (−)-epigallocatechin-3-O-gallate, esculetin, naringenin, quercetin, daidzein, genistein or kaempferol), 10 mg dextrin, 100 mM acetate buffer (pH 5.2) and the crude enzyme solution, followed by HPLC analysis.

[5] = tested on: Cellulase “Onozuka” RS; experiment: Glycosyl donor selectivity 2: (+)-catechin, Cellulase “Onozuka” RS and each glycosyl donor, HPLC; format: biochemical, Trichoderma viride; conditions: substance as glycosyl donor (10 mg); (+)-catechin 3 mg; 50° C., 1 day, pH 5
Experimental: (+)-Catechin (3 mg) was mixed with Cellulase “Onozuka” RS (10 mg), each glycosyl donor (10 mg) and 0.1 M acetate buffer (100 μl, pH 5), followed by stirring at 50° C. for 1 day. The glycosyl donors used were maltose, maltotriose, maltotetraose, maltopentaose, maltohexaose, maltoheptaose and dextrin (Nacalai Tesque, Inc., Japan), as well as γ-cyclodextrin (Wako Pure Chemical Industries, Ltd., Japan). After the reaction, the centrifuged supernatant was diluted 10-fold and analyzed by HPLC.

[6] = tested on: Cellulase “Onozuka” RS; experiment: Glycosyl donor selectivity 1: (+)-catechin, Cellulase “Onozuka” RS and each glycosyl donor, HPLC; format: biochemical, Trichoderma viride; conditions: substance as glycosyl donor (20 mg); (+)-catechin 6 mg; 50° C., 1 day, pH 5
Experimental: (+)-Catechin (6 mg) was mixed with Cellulase “Onozuka” RS (20 mg), each glycosyl donor (20 mg) and 0.1 M acetate buffer (200 μl, pH 5), followed by stirring at 50° C. for 1 day. After the reaction, the centrifuged supernatant was diluted 10-fold and analyzed by HPLC. The glycosyl donors used were cellobiose (Sigma), dextran (Sigma), maltose (Nacalai Tesque, Inc., Japan), carboxymethylcellulose sodium (Nacalai Tesque, Inc., Japan), soluble starch (Nacalai Tesque, Inc., Japan), dextrin (Nacalai Tesque, Inc., Japan), isomaltooligosaccharide (Wako Pure Chemical Industries, Ltd., Japan), α-cyclodextrin (Wako Pure Chemical Industries, Ltd., Japan), γ-cyclodextrin (Wako Pure Chemical Industries, Ltd., Japan) and trehalose dihydrate (Nacalai Tesque, Inc., Japan).

Molecule	degradation of sugar in culture solution of strain TRa2-1 [1]	area ratio (%) between acceptor compound and glycoside product [4] [%]	Product (% area) 5-Glc [5] [% area]	Product (% area) 7-Glc [5] [% area]	further results
OC[C@H]1O[C@H](O[C@H]2[C@H](O)[C@@H](O)C(O)O[C@@H]2CO)[C@H](O)[C@@H](O)[C@@H]1O (mixture of isomers) [Maltose, maltose]	no degradation	–	–	–	–
OC[C@H]1O[C@H](Oc2ccc([C@H]3Oc4cc(O)cc(O)c4C[C@@H]3O)cc2O)[C@H](O)[C@@H](O)[C@@H]1O [4′-O-α-D-glucopyranosyl-(+)-catechin]	–	–	–	–	heat stability (% remaining) [2]: more stable against heat than catechin
OC[C@H]1O[C@H](Oc2cc(O)cc3c2C[C@H](O)[C@@H](c2ccc(O)c(O)c2)O3)[C@H](O)[C@@H](O)[C@@H]1O [5-O-α-D-glucopyranosyl-(+)-catechin]	–	–	–	–	solubility relative to (+)-catechin [3]: at least 40 fold
O=C(O[C@@H]1Cc2c(O[C@H]3O[C@H](CO)[C@@H](O)[C@H](O)[C@H]3O)cc(O)cc2O[C@@H]1c1cc(O)c(O)c(O)c1)c1cc(O)c(O)c(O)c1 [5-O-α-D-glucopyranosyl-(−)-epigallocatechin-3-O-gallate]	–	–	–	–	solubility compared to (−)-epigallocatechin-3-O-gallate ([3]; water): significantly increased solubility
Oc1cc(O)c2c(c1)O[C@H](c1ccc(O)c(O)c1)[C@@H](O)C2 [(+)-catechin]	–	10	–	–	water solubility [3]: substantially insoluble in water
OC[C@H]1O[C@H](O[C@H]2[C@H](O)[C@@H](O)[C@@H](O[C@H]3[C@H](O)[C@@H](O)[C@@H](O[C@H]4[C@H](O)[C@@H](O)C(O)O[C@@H]4CO)O[C@@H]3CO)O[C@@H]2CO)[C@H](O)[C@@H](O)[C@@H]1O (some centres unmarked) [Maltotetraose, maltotetraose]	degraded	–	7.15	1.60	–
O=c1c(-c2ccc(O)cc2)coc2cc(O)ccc12 [daidzein]	–	10.7	–	–	–
O=c1ccc2cc(O)c(O)cc2o1 [esculetin]	–	3.5	–	–	–
O=c1c(-c2ccc(O)cc2)coc2cc(O)cc(O)c12 [genistein]	–	6.8	–	–	–
O=c1c(O)c(-c2ccc(O)cc2)oc2cc(O)cc(O)c12 [kaempferol]	–	3.1	–	–	–
O=C1C[C@@H](c2ccc(O)cc2)Oc2cc(O)cc(O)c21 [naringenin]	–	4.4	–	–	–
O=c1c(O)c(-c2ccc(O)c(O)c2)oc2cc(O)cc(O)c12 [quercetin]	–	9.4	–	–	–
OC[C@H]1O[C@@H]2O[C@H]3[C@H](O)[C@@H](O)[C@@H](O[C@H]4[C@H](O)[C@@H](O)[C@@H](O[C@H]5[C@H](O)[C@@H](O)[C@@H](O[C@H]6[C@H](O)[C@@H](O)[C@@H](O[C@H]7[C@H](O)[C@@H](O)[C@@H](O[C@H]1[C@H](O)[C@H]2O)O[C@@H]7CO)O[C@@H]6CO)O[C@@H]5CO)O[C@@H]4CO)O[C@@H]3CO [α-Cyclodextrin, α-cyclodextrin]	no degradation	–	–	–	–
OC[C@H]1O[C@@H]2O[C@H]3[C@H](O)[C@@H](O)[C@@H](O[C@H]4[C@H](O)[C@@H](O)[C@@H](O[C@H]5[C@H](O)[C@@H](O)[C@@H](O[C@H]6[C@H](O)[C@@H](O)[C@@H](O[C@H]7[C@H](O)[C@@H](O)[C@@H](O[C@H]8[C@H](O)[C@@H](O)[C@@H](O[C@H]1[C@H](O)[C@H]2O)O[C@@H]8CO)O[C@@H]7CO)O[C@@H]6CO)O[C@@H]5CO)O[C@@H]4CO)O[C@@H]3CO [β-cyclodextrin]	no degradation	–	–	–	–
OC[C@H]1O[C@@H]2O[C@H]3[C@H](O)[C@@H](O)[C@@H](O[C@H]4[C@H](O)[C@@H](O)[C@@H](O[C@H]5[C@H](O)[C@@H](O)[C@@H](O[C@H]6[C@H](O)[C@@H](O)[C@@H](O[C@H]7[C@H](O)[C@@H](O)[C@@H](O[C@H]8[C@H](O)[C@@H](O)[C@@H](O[C@H]9[C@H](O)[C@@H](O)[C@@H](O[C@H]1[C@H](O)[C@H]2O)O[C@@H]9CO)O[C@@H]8CO)O[C@@H]7CO)O[C@@H]6CO)O[C@@H]5CO)O[C@@H]4CO)O[C@@H]3CO [γ-Cyclodextrin, γ-cyclodextrin]	degraded	–	14.53	4.73	Product (% area) 5-Glc [6]: 14.69 % area; Product (% area) 7-Glc [6]: 5.91 % area
(−)-epigallocatechin-3-O-gallate	–	17.7	–	–	–
maltoheptaose	–	–	7.39	1.97	–
maltohexaose	–	–	7.89	2.06	–
maltopentaose	–	–	7.87	1.98	–
maltotriose	degraded	–	2.54	0.51	–
